The source of these data is ChEMBL document CHEMBL3137667, “[Drug-induced liver injury; fourteenth updated edition of the bibliographic database of liver injuries and related drugs]” (Gastroenterol Clin Biol, 2004).

The structures appear in SMILES notation.

The conditions of series [1]: human.
The conditions of series [2]: human, serum.
The conditions of series [3]: human. The source holds these as a separate data set.
For series [4] the following is noted: human. This is another data set of the same source.
Series [5] can be described thus: Comments (NB not yet translated). [column 'COMMENTAIRES' in source]. The note with it: human.
A short description of series [6]: Highest frequency of moderate liver toxicity observed during clinical trials, expressed as a percentage. [column '% BIOL' in source]. The note with it: human.
A short description of series [7]: Times to onset, minimal and maximal, observed in the indexed observations. [column 'DELAI' in source]. To be noted: human.
For series [8] the following is noted: human. This is another data set of the same source.
The conditions of series [9]: human, serum, 4383 h.
Series [10] can be described thus: Highest frequency of acute liver toxicity observed during clinical trials, expressed as a percentage. [column '% AIGUE' in source]. To be noted: human.
For series [11] the following is noted: human. The source holds these as a separate data set.
The conditions of series [12]: human, serum. This is another data set of the same source.
For series [13] the following is noted: human. The source holds these as a separate data set.
For series [14] the following is noted: human. This is another data set of the same source.
For series [15] the following is noted: human. The source holds these as a separate data set.
For series [16] the following is noted: human. The source holds these as a separate data set.
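Throughout, for Hepatotoxicity (association with vascular disease): count of indexed literature references reporting vascular liver injury in humans, e.g. peliosis hepatitis, hepatic veno-occlusive disease or Budd-Chiari syndrome.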
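Throughout, for Hepatotoxicity (benign tumour): value is a count of indexed literature references citing a benign tumour confirmed by histopathology.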
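Throughout, for Hepatotoxicity (choleostasis): human cholestatic liver injury, shown by histopathology or by peak ALT or AST elevation over alkaline phosphatase ratio below 2, value counts indexed literature reports.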
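Throughout, for Hepatotoxicity (chronic liver disease): chronic liver injury confirmed by histopathology or persistently raised serum aminotransferase activity beyond 6 months, value given as the count of indexed literature references.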
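Throughout, for Hepatotoxicity (cirrhosis): value is a count of indexed literature references reporting cirrhosis confirmed by histopathology.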
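Throughout, for Hepatotoxicity (cytolytic): human cytolytic liver injury, shown by histopathology or by a ratio above 5 of peak ALT or AST elevation to alkaline phosphatase elevation, value counts indexed references.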
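Throughout, for Hepatotoxicity (granulomatous hepatitis): value is a count of indexed literature references reporting granulomatous liver disease confirmed by histopathology.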
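Throughout, for Hepatotoxicity (malignant tumour): malignant tumour confirmed by histopathology, value gives the count of indexed literature references reporting it.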
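Throughout, for Hepatotoxicity (severe hepatitis): human clinical data: severe hepatitis, meaning potentially life-threatening liver failure or clinically observed cases, the value counts how many indexed literature references report it.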
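Throughout, for Hepatotoxicity (steatosis): steatosis confirmed by histopathology, value is the count of indexed references.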

For `O=C(O)C1N=C(c2ccccc2)c2cc(Cl)ccc2NC1=O` (stereo not given) [CLORAZEPIC ACID], the “Hepatotoxicity (cirrhosis)” value in series [1] stood at 0. Besides, the “Hepatotoxicity (moderate)” value in series [2] came to 0; in series [6], 0%. The “Hepatotoxicity (cytolytic)” value in series [3] was 2. The “Hepatotoxicity (association with vascular disease)” value in series [4] stood at 0. For the same compound, the “Hepatotoxicity (comment)” value in series [5] is “CHOLESTASE_PROLONGEE”. Also, in series [7], the “Hepatotoxicity (time to onset)” value amounted to 2 months - 3 months. Further, in [8], the “Hepatotoxicity (malignant tumour)” value is 0. Moreover, the “Hepatotoxicity (chronic liver disease)” value in series [9] came to 0. Besides, the “Hepatotoxicity (acute)” value was 0% in series [10] and 3 in series [12]. The “Hepatotoxicity (benign tumour)” value in [11] was determined as 0. In series [13], the “Hepatotoxicity (steatosis)” value is 0. The “Hepatotoxicity (choleostasis)” value in series [14] came out at 3. The “Hepatotoxicity (granulomatous hepatitis)” value in series [15] was determined as 0. In addition, the “Hepatotoxicity (severe hepatitis)” value in series [16] is recorded as 0.

`CC(=O)/N=c1/sc(S(N)(=O)=O)nn1C` [METHAZOLAMIDE]: the “Hepatotoxicity (cirrhosis)” value in series [1] turned out to be 0. The entries for the “Hepatotoxicity (moderate)” value in series [2] and in series [6] were 0 and 0%, respectively. For the same compound, the “Hepatotoxicity (cytolytic)” value in [3] was found to be 0. Further, the “Hepatotoxicity (association with vascular disease)” value in [4] was determined as 0. Besides, in series [5], the “Hepatotoxicity (comment)” value is reported as “CHOLESTASE_PROLONGEE”. Moreover, the “Hepatotoxicity (time to onset)” value in series [7] is on record as 2 weeks. Moreover, in [8], the “Hepatotoxicity (malignant tumour)” value is 0. Moreover, in series [9], the “Hepatotoxicity (chronic liver disease)” value was 0. Also, the “Hepatotoxicity (acute)” value in series [10] is 0%; in series [12], 1. The “Hepatotoxicity (benign tumour)” value in series [11] was determined as 0. In addition, in series [13], the “Hepatotoxicity (steatosis)” value is 0. The “Hepatotoxicity (choleostasis)” value in series [14] worked out at 1. In addition, the “Hepatotoxicity (granulomatous hepatitis)” value in series [15] stood at 0. Also, in [16], the “Hepatotoxicity (severe hepatitis)” value is given as 0.

As for `C[C@]12CC[C@H]3[C@@H](CCC4=CC(=O)CC[C@@H]43)[C@@H]1CC[C@@H]2O` [NANDROLONE], in series [1], the “Hepatotoxicity (cirrhosis)” value was found to be 0. For the same compound, the “Hepatotoxicity (moderate)” value in [2] was determined as 0; in series [6], 0%. Also, in series [3], the “Hepatotoxicity (cytolytic)” value was 3. Besides, the “Hepatotoxicity (association with vascular disease)” value in series [4] was determined as 0. In series [5], the “Hepatotoxicity (comment)” value is recorded as “CHOLESTASE_PROLONGEE”. Besides, the “Hepatotoxicity (time to onset)” value in series [7] was 4 months - 12 years. For the same compound, the “Hepatotoxicity (malignant tumour)” value in [8] is 0. The “Hepatotoxicity (chronic liver disease)” value in series [9] is 0. The “Hepatotoxicity (acute)” value in [10] is listed as 0%; in series [12], 7. In addition, the “Hepatotoxicity (benign tumour)” value in [11] was found to be 2. Besides, the “Hepatotoxicity (steatosis)” value in [13] is recorded as 1. The “Hepatotoxicity (choleostasis)” value in series [14] was determined as 1. Besides, in [15], the “Hepatotoxicity (granulomatous hepatitis)” value was 0. Also, in series [16], the “Hepatotoxicity (severe hepatitis)” value is 0.

Take `CC(=O)c1ccc2c(c1)N(CC(C)N(C)C)c1ccccc1S2` (stereo not given) [ACEPROMETAZINE]: the “Hepatotoxicity (cirrhosis)” value in series [1] amounted to 0. Moreover, the “Hepatotoxicity (moderate)” value in series [2] is recorded as 0; in series [6], 0%. In [3], the “Hepatotoxicity (cytolytic)” value was found to be 0. For the same compound, in series [4], the “Hepatotoxicity (association with vascular disease)” value was determined as 0. For the same compound, in series [5], the “Hepatotoxicity (comment)” value was “CHOLESTASE_PROLONGEE”. The “Hepatotoxicity (time to onset)” value in [7] turned out to be 3 months. Also, in series [8], the “Hepatotoxicity (malignant tumour)” value was 0. Also, the “Hepatotoxicity (chronic liver disease)” value in series [9] is 0. In addition, the “Hepatotoxicity (acute)” value in [10] worked out at 0%; in series [12], 1. For the same compound, in [11], the “Hepatotoxicity (benign tumour)” value stood at 0. Besides, the “Hepatotoxicity (steatosis)” value in series [13] is listed as 0. In addition, the “Hepatotoxicity (choleostasis)” value in series [14] was 1. The “Hepatotoxicity (granulomatous hepatitis)” value in [15] is given as 0. The “Hepatotoxicity (severe hepatitis)” value in [16] came to 0.

For the compound `C[C@]12COC(=O)C[C@@H]1CC[C@@H]1[C@@H]2CC[C@@]2(C)[C@H]1CC[C@]2(C)O` [OXANDROLONE], the “Hepatotoxicity (cirrhosis)” value in series [1] is 0. The “Hepatotoxicity (moderate)” value stood at 0 in [2] and 0% in series [6]. The “Hepatotoxicity (cytolytic)” value in series [3] was found to be 0. The “Hepatotoxicity (association with vascular disease)” value in series [4] amounted to 0. In [5], the “Hepatotoxicity (comment)” value is listed as “HNF”. Further, in [7], the “Hepatotoxicity (time to onset)” value was 6 months. The “Hepatotoxicity (malignant tumour)” value in [8] is 0. Further, in [9], the “Hepatotoxicity (chronic liver disease)” value is recorded as 0. Moreover, the “Hepatotoxicity (acute)” value is recorded as 0% in [10] and 2 in [12]. In addition, the “Hepatotoxicity (benign tumour)” value in series [11] amounted to 1. Also, in [13], the “Hepatotoxicity (steatosis)” value amounted to 0. The “Hepatotoxicity (choleostasis)” value in series [14] came to 2. In series [15], the “Hepatotoxicity (granulomatous hepatitis)” value is listed as 0. The “Hepatotoxicity (severe hepatitis)” value in series [16] is given as 0.

Turning to `CC(=O)OCC(CCn1cnc2cnc(N)nc21)COC(C)=O` [FAMCICLOVIR], the “Hepatotoxicity (cirrhosis)” value in series [1] is 0. In addition, the “Hepatotoxicity (moderate)” value in series [2] came to 0; in [6], 0%. Also, the “Hepatotoxicity (cytolytic)” value in [3] is on record as 0. Further, in [4], the “Hepatotoxicity (association with vascular disease)” value is reported as 0. Also, the “Hepatotoxicity (comment)” value in series [5] is recorded as “REACTIVATION_HVB”. Also, the “Hepatotoxicity (time to onset)” value in series [7] turned out to be 12 weeks. Further, in [8], the “Hepatotoxicity (malignant tumour)” value amounted to 0. For the same compound, in series [9], the “Hepatotoxicity (chronic liver disease)” value worked out at 0. In addition, the figures for the “Hepatotoxicity (acute)” value in [10] and in series [12] were 0% and 1, respectively. Further, in series [11], the “Hepatotoxicity (benign tumour)” value is reported as 0. The “Hepatotoxicity (steatosis)” value in [13] came to 0. In series [14], the “Hepatotoxicity (choleostasis)” value is 0. Moreover, in series [15], the “Hepatotoxicity (granulomatous hepatitis)” value was found to be 0. Moreover, the “Hepatotoxicity (severe hepatitis)” value in [16] is given as 1.

As to `C[C@@H]1C[C@H]2[C@@H]3CCC4=CC(=O)C=C[C@]4(C)[C@@]3(F)[C@@H](O)C[C@]2(C)[C@@]1(O)C(=O)CO` [DEXAMETHASONE], the “Hepatotoxicity (cirrhosis)” value in series [1] is 0. In addition, the “Hepatotoxicity (moderate)” value was 2 in series [2] and 24% in series [6]. In addition, the “Hepatotoxicity (cytolytic)” value in [3] came out at 0. Further, the “Hepatotoxicity (association with vascular disease)” value in [4] amounted to 0. Besides, in series [5], the “Hepatotoxicity (comment)” value is recorded as “HEPATOMEGALIE”. Also, the “Hepatotoxicity (time to onset)” value in series [7] was 8 days - 18 days. In addition, the “Hepatotoxicity (malignant tumour)” value in series [8] amounted to 0. Further, in [9], the “Hepatotoxicity (chronic liver disease)” value is recorded as 0. Besides, the “Hepatotoxicity (acute)” value was determined as 0% in series [10] and 0 in [12]. Further, in [11], the “Hepatotoxicity (benign tumour)” value is 0. The “Hepatotoxicity (steatosis)” value in [13] turned out to be 0. Also, the “Hepatotoxicity (choleostasis)” value in [14] amounted to 0. Also, the “Hepatotoxicity (granulomatous hepatitis)” value in series [15] stood at 0. Moreover, in [16], the “Hepatotoxicity (severe hepatitis)” value turned out to be 0.

`CCCCC1C(=O)N(c2ccccc2)N(c2ccc(O)cc2)C1=O` (stereo not given) [OXYPHENBUTAZONE ANHYDROUS]: the “Hepatotoxicity (cirrhosis)” value in series [1] is on record as 1. For the same compound, the entries for the “Hepatotoxicity (moderate)” value in series [2] and in [6] were 3 and 0%, respectively. The “Hepatotoxicity (cytolytic)” value in series [3] worked out at 4. Further, the “Hepatotoxicity (association with vascular disease)” value in [4] is 0. Also, the “Hepatotoxicity (comment)” value in series [5] is given as “RC/PHENYLBUTAZONE”. Besides, in series [7], the “Hepatotoxicity (time to onset)” value worked out at 1 week - 2 months. In addition, in series [8], the “Hepatotoxicity (malignant tumour)” value is 0. In series [9], the “Hepatotoxicity (chronic liver disease)” value stood at 0. In addition, the “Hepatotoxicity (acute)” value stood at 0% in series [10] and 9 in [12]. Besides, the “Hepatotoxicity (benign tumour)” value in [11] came out at 0. The “Hepatotoxicity (steatosis)” value in series [13] was 1. In addition, the “Hepatotoxicity (choleostasis)” value in series [14] was 3. In [15], the “Hepatotoxicity (granulomatous hepatitis)” value was 5. For the same compound, the “Hepatotoxicity (severe hepatitis)” value in series [16] is 3.

On to `Nc1nc(F)nc2c1ncn2[C@@H]1O[C@H](CO)[C@@H](O)[C@@H]1O` [FLUDARABINE], for which the “Hepatotoxicity (cirrhosis)” value in series [1] is recorded as 0. Also, the “Hepatotoxicity (moderate)” value in [2] worked out at 5; in series [6] it was 42.9%. In series [3], the “Hepatotoxicity (cytolytic)” value amounted to 1. Besides, the “Hepatotoxicity (association with vascular disease)” value in series [4] was found to be 0. In [5], the “Hepatotoxicity (comment)” value is recorded as “REACTIVATION_HVB”. The “Hepatotoxicity (time to onset)” value in series [7] was found to be 8 months. Further, the “Hepatotoxicity (malignant tumour)” value in [8] came to 0. For the same compound, the “Hepatotoxicity (chronic liver disease)” value in series [9] stood at 0. Moreover, the “Hepatotoxicity (acute)” value in series [10] is on record as 0%; in [12], 2. In addition, the “Hepatotoxicity (benign tumour)” value in [11] is reported as 0. Further, the “Hepatotoxicity (steatosis)” value in [13] was 0. Besides, the “Hepatotoxicity (choleostasis)” value in series [14] is 0. The “Hepatotoxicity (granulomatous hepatitis)” value in series [15] was 0. The “Hepatotoxicity (severe hepatitis)” value in series [16] amounted to 1.

On to `CCOc1ccc2ccccc2c1C(=O)N[C@@H]1C(=O)N2[C@@H]1SC(C)(C)[C@@H]2C(=O)O` [NAFCILLIN], for which the “Hepatotoxicity (cirrhosis)” value in series [1] came out at 0. Also, the “Hepatotoxicity (moderate)” value is listed as 4 in series [2] and 25% in series [6]. Besides, the “Hepatotoxicity (cytolytic)” value in series [3] was found to be 1. For the same compound, in series [4], the “Hepatotoxicity (association with vascular disease)” value worked out at 0. For the same compound, in series [5], the “Hepatotoxicity (comment)” value is recorded as “RC/OXACILLINE/CEFALOTINE”. Moreover, the “Hepatotoxicity (time to onset)” value in series [7] is 1 day - 2 weeks. Besides, the “Hepatotoxicity (malignant tumour)” value in series [8] worked out at 0. Besides, the “Hepatotoxicity (chronic liver disease)” value in series [9] is reported as 0. Further, the “Hepatotoxicity (acute)” value is on record as 3.1% in series [10] and 5 in series [12]. Moreover, in [11], the “Hepatotoxicity (benign tumour)” value is reported as 0. The “Hepatotoxicity (steatosis)” value in [13] is 0. For the same compound, in series [14], the “Hepatotoxicity (choleostasis)” value is reported as 3. In series [15], the “Hepatotoxicity (granulomatous hepatitis)” value is 0. For the same compound, the “Hepatotoxicity (severe hepatitis)” value in [16] was determined as 0.
